According to PubChem BioAssay (NCI):
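Assay format: 96-well plates, 48-hour exposure. The concentration for full growth arrest is given as TGI.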

Columns and labels:
Assay in all cases: NCI-60 cell line screen, 48 h
NCI-H522 lung = tested on: NCI-H522 lung
SN12C renal = tested on: SN12C renal
786-0 renal = tested on: 786-0 renal
U251 CNS = tested on: U251 CNS
CCRF-CEM leukemia = tested on: CCRF-CEM leukemia
HT29 colon = tested on: HT29 colon
RPMI-8226 leukemia = tested on: RPMI-8226 leukemia
KM12 colon = tested on: KM12 colon
MDA-N = tested on: MDA-N
SNB-19 CNS = tested on: SNB-19 CNS
BT-549 breast = tested on: BT-549 breast
IGROV1 ovarian = tested on: IGROV1 ovarian
MDA-MB-231 breast = tested on: MDA-MB-231 breast
HL-60(TB) leukemia = tested on: HL-60(TB) leukemia
UACC-62 melanoma = tested on: UACC-62 melanoma
SF-539 CNS = tested on: SF-539 CNS
MCF7 breast = tested on: MCF7 breast
SK-OV-3 ovarian = tested on: SK-OV-3 ovarian
A498 renal = tested on: A498 renal
A549 NSCLC = tested on: A549 NSCLC
HOP-62 NSCLC = tested on: HOP-62 NSCLC
K-562 leukemia = tested on: K-562 leukemia
SF-295 CNS = tested on: SF-295 CNS
DU-145 prostate = tested on: DU-145 prostate
OVCAR-8 ovarian = tested on: OVCAR-8 ovarian
T-47D breast = tested on: T-47D breast
MDA-MB-435 = tested on: MDA-MB-435
HCT-116 colon = tested on: HCT-116 colon
OVCAR-3 ovarian = tested on: OVCAR-3 ovarian
UO-31 renal = tested on: UO-31 renal
MOLT-4 leukemia = tested on: MOLT-4 leukemia
ACHN renal = tested on: ACHN renal
SF-268 CNS = tested on: SF-268 CNS
SK-MEL-5 melanoma = tested on: SK-MEL-5 melanoma
COLO 205 colon = tested on: COLO 205 colon
NCI-H460 lung = tested on: NCI-H460 lung
HOP-92 NSCLC = tested on: HOP-92 NSCLC
NCI-H226 lung = tested on: NCI-H226 lung
PC-3 prostate = tested on: PC-3 prostate
SR leukemia = tested on: SR leukemia
SNB-75 CNS = tested on: SNB-75 CNS
HS 578T breast = tested on: HS 578T breast
UACC-257 melanoma = tested on: UACC-257 melanoma
SK-MEL-28 melanoma = tested on: SK-MEL-28 melanoma
NCI/ADR-RES ovarian = tested on: NCI/ADR-RES ovarian
OVCAR-5 ovarian = tested on: OVCAR-5 ovarian
HCT-15 colon = tested on: HCT-15 colon
SW-620 colon = tested on: SW-620 colon
TK-10 renal = tested on: TK-10 renal
HCC-2998 colon = tested on: HCC-2998 colon
NCI-H23 lung = tested on: NCI-H23 lung
EKVX NSCLC = tested on: EKVX NSCLC
CAKI-1 renal = tested on: CAKI-1 renal
SK-MEL-2 melanoma = tested on: SK-MEL-2 melanoma
LOX IMVI melanoma = tested on: LOX IMVI melanoma
M14 melanoma = tested on: M14 melanoma
OVCAR-4 ovarian = tested on: OVCAR-4 ovarian
MALME-3M melanoma = tested on: MALME-3M melanoma

SMILES: CC1(O)CCC(C(C)(C)O)CC1 (stereo not given)
- TGI (NCI-H522 lung): > 100 µM
- TGI (SN12C renal): > 100 µM
- TGI (786-0 renal): > 100 µM
- TGI (U251 CNS): > 100 µM
- TGI (CCRF-CEM leukemia): > 100 µM
- TGI (HT29 colon): > 100 µM
- TGI (RPMI-8226 leukemia): > 100 µM
- TGI (KM12 colon): > 100 µM
- TGI (MDA-N): > 100 µM
- TGI (SNB-19 CNS): > 100 µM
- TGI (BT-549 breast): > 100 µM
- TGI (IGROV1 ovarian): > 100 µM
- TGI (MDA-MB-231 breast): > 100 µM
- TGI (HL-60(TB) leukemia): > 100 µM
- TGI (UACC-62 melanoma): > 100 µM
- TGI (SF-539 CNS): > 100 µM
- TGI (MCF7 breast): > 100 µM
- TGI (SK-OV-3 ovarian): > 100 µM
- TGI (A498 renal): > 100 µM
- TGI (A549 NSCLC): > 100 µM
- TGI (HOP-62 NSCLC): > 100 µM
- TGI (K-562 leukemia): > 100 µM
- TGI (SF-295 CNS): > 100 µM
- TGI (DU-145 prostate): > 100 µM
- TGI (OVCAR-8 ovarian): > 100 µM
- TGI (T-47D breast): > 100 µM
- TGI (MDA-MB-435): > 100 µM
- TGI (HCT-116 colon): > 100 µM
- TGI (OVCAR-3 ovarian): > 100 µM
- TGI (UO-31 renal): > 100 µM
- TGI (MOLT-4 leukemia): > 100 µM
- TGI (ACHN renal): > 100 µM
- TGI (SF-268 CNS): > 100 µM
- TGI (SK-MEL-5 melanoma): > 100 µM
- TGI (COLO 205 colon): > 100 µM
- TGI (NCI-H460 lung): > 100 µM
- TGI (HOP-92 NSCLC): > 100 µM
- TGI (NCI-H226 lung): > 100 µM
- TGI (PC-3 prostate): > 100 µM
- TGI (SR leukemia): > 100 µM
- TGI (SNB-75 CNS): > 100 µM
- TGI (HS 578T breast): > 100 µM
- TGI (UACC-257 melanoma): > 100 µM
- TGI (SK-MEL-28 melanoma): > 100 µM
- TGI (NCI/ADR-RES ovarian): > 100 µM
- TGI (OVCAR-5 ovarian): > 100 µM
- TGI (HCT-15 colon): > 100 µM
- TGI (SW-620 colon): > 100 µM
- TGI (TK-10 renal): > 100 µM
- TGI (HCC-2998 colon): > 100 µM
- TGI (NCI-H23 lung): > 100 µM
- TGI (EKVX NSCLC): > 100 µM
- TGI (CAKI-1 renal): > 100 µM
- TGI (SK-MEL-2 melanoma): > 100 µM
- TGI (LOX IMVI melanoma): > 100 µM
- TGI (M14 melanoma): > 100 µM
- TGI (OVCAR-4 ovarian): > 100 µM

SMILES: COC(=O)C#Cc1cccc(OC)c1OC
- TGI (SN12C renal): > 100 µM
- TGI (786-0 renal): > 100 µM
- TGI (U251 CNS): > 100 µM
- TGI (CCRF-CEM leukemia): 67.9 µM
- TGI (HT29 colon): 79.2 µM
- TGI (RPMI-8226 leukemia): > 100 µM
- TGI (KM12 colon): > 100 µM
- TGI (MDA-N): > 100 µM
- TGI (SNB-19 CNS): > 100 µM
- TGI (BT-549 breast): > 100 µM
- TGI (MDA-MB-231 breast): > 100 µM
- TGI (HL-60(TB) leukemia): > 100 µM
- TGI (UACC-62 melanoma): > 100 µM
- TGI (SF-539 CNS): 46.4 µM
- TGI (MCF7 breast): 55.6 µM
- TGI (SK-OV-3 ovarian): > 100 µM
- TGI (A498 renal): > 100 µM
- TGI (A549 NSCLC): > 100 µM
- TGI (HOP-62 NSCLC): > 100 µM
- TGI (K-562 leukemia): 55.1 µM
- TGI (SF-295 CNS): > 100 µM
- TGI (DU-145 prostate): > 100 µM
- TGI (OVCAR-8 ovarian): > 100 µM
- TGI (T-47D breast): > 100 µM
- TGI (MDA-MB-435): > 100 µM
- TGI (HCT-116 colon): > 100 µM
- TGI (OVCAR-3 ovarian): > 100 µM
- TGI (UO-31 renal): 37.9 µM
- TGI (MOLT-4 leukemia): 35.4 µM
- TGI (ACHN renal): > 100 µM
- TGI (SK-MEL-5 melanoma): > 100 µM
- TGI (COLO 205 colon): 65.7 µM
- TGI (NCI-H460 lung): > 100 µM
- TGI (HOP-92 NSCLC): 66.1 µM
- TGI (NCI-H226 lung): > 100 µM
- TGI (PC-3 prostate): > 100 µM
- TGI (SR leukemia): 44.8 µM
- TGI (HS 578T breast): > 100 µM
- TGI (UACC-257 melanoma): > 100 µM
- TGI (SK-MEL-28 melanoma): > 100 µM
- TGI (NCI/ADR-RES ovarian): 99 µM
- TGI (OVCAR-5 ovarian): 51.3 µM
- TGI (HCT-15 colon): > 100 µM
- TGI (SW-620 colon): > 100 µM
- TGI (TK-10 renal): > 100 µM
- TGI (MALME-3M melanoma): > 100 µM
- TGI (HCC-2998 colon): 48.2 µM
- TGI (NCI-H23 lung): > 100 µM
- TGI (EKVX NSCLC): 54.4 µM
- TGI (CAKI-1 renal): 68.3 µM
- TGI (LOX IMVI melanoma): > 100 µM
- TGI (M14 melanoma): > 100 µM
- TGI (OVCAR-4 ovarian): 36.2 µM

SMILES: Cc1ccc(Cc2nc(=S)[nH][nH]2)cc1
- TGI (SN12C renal): > 100 µM
- TGI (786-0 renal): > 100 µM
- TGI (U251 CNS): > 100 µM
- TGI (CCRF-CEM leukemia): > 100 µM
- TGI (HT29 colon): > 100 µM
- TGI (KM12 colon): > 100 µM
- TGI (MDA-N): > 100 µM
- TGI (SNB-19 CNS): > 100 µM
- TGI (BT-549 breast): > 100 µM
- TGI (IGROV1 ovarian): > 100 µM
- TGI (MDA-MB-231 breast): > 100 µM
- TGI (HL-60(TB) leukemia): 97.9 µM
- TGI (UACC-62 melanoma): > 100 µM
- TGI (SF-539 CNS): > 100 µM
- TGI (MCF7 breast): > 100 µM
- TGI (SK-OV-3 ovarian): > 100 µM
- TGI (A498 renal): > 100 µM
- TGI (A549 NSCLC): > 100 µM
- TGI (HOP-62 NSCLC): > 100 µM
- TGI (K-562 leukemia): > 100 µM
- TGI (SF-295 CNS): > 100 µM
- TGI (DU-145 prostate): > 100 µM
- TGI (OVCAR-8 ovarian): > 100 µM
- TGI (T-47D breast): > 100 µM
- TGI (MDA-MB-435): > 100 µM
- TGI (HCT-116 colon): > 100 µM
- TGI (OVCAR-3 ovarian): > 100 µM
- TGI (UO-31 renal): > 100 µM
- TGI (MOLT-4 leukemia): > 100 µM
- TGI (ACHN renal): > 100 µM
- TGI (SK-MEL-5 melanoma): > 100 µM
- TGI (COLO 205 colon): > 100 µM
- TGI (NCI-H460 lung): > 100 µM
- TGI (HOP-92 NSCLC): > 100 µM
- TGI (NCI-H226 lung): > 100 µM
- TGI (PC-3 prostate): > 100 µM
- TGI (SR leukemia): > 100 µM
- TGI (SNB-75 CNS): > 100 µM
- TGI (HS 578T breast): > 100 µM
- TGI (UACC-257 melanoma): > 100 µM
- TGI (SK-MEL-28 melanoma): > 100 µM
- TGI (NCI/ADR-RES ovarian): > 100 µM
- TGI (OVCAR-5 ovarian): > 100 µM
- TGI (HCT-15 colon): > 100 µM
- TGI (SW-620 colon): > 100 µM
- TGI (TK-10 renal): > 100 µM
- TGI (MALME-3M melanoma): > 100 µM
- TGI (HCC-2998 colon): > 100 µM
- TGI (NCI-H23 lung): > 100 µM
- TGI (EKVX NSCLC): > 100 µM
- TGI (CAKI-1 renal): > 100 µM
- TGI (SK-MEL-2 melanoma): > 100 µM
- TGI (LOX IMVI melanoma): > 100 µM
- TGI (M14 melanoma): > 100 µM
- TGI (OVCAR-4 ovarian): 96.5 µM
